Measurements from patent US10011638B2, “PTEN antagonist peptides and methods of using the same” (SHRINERS HOSPITALS FOR CHILDREN, priority 2014, dated 2018).
Like-named read-outs stand apart in the source and are kept apart here.

What was measured:
[1] = system: DRG neurons; experiment: Neurite outgrowth of adult DRG neurons on CNS myelin spots; assay type: cell-based, mice; settings: chosen from dose-response curve of neurite outgrowth assays of DRGs on CNS myelin
Method: (§1) Neurite outgrowth from neurons was performed in DRG and CGN cultures 1-5 days after growth. For DRG assay on myelin spots, the center of each culture coverslip was spotted with 2 μl of purified CNS myelin (200 μg/ml), which contains a number of axon growth inhibitors (11). DRGs were dissected out from C57BL/6 mice aged 8-10 weeks. After incubation with collagenase and 0.25% trypsin, dissociated DRG neurons were plated onto plastic coverslips in 24-well plates and grown in culture medium as previously reported (25, 48). Primary CGN cultures were prepared from cerebelli of postnatal 7-9 day C57BL/6 mice as reported previously (25, 29).
(§2) After plating, dissociated neurons were treated with vehicle, RP (10 μg/ml), PAP1 (2.5 μg/ml), PAP2 (10 μg/ml), PAP3 ([…]), PAP4 (6.7 μg/ml) and PAP5 (5 μg/ml). The doses of PAPs were chosen based on the dose-response curve obtained from neurite outgrowth assays of DRGs on CNS myelin. Neurons were fixed 5 days (DRGs) or 24 hrs (CGNs) after plating and stained for Tuj1. Images of each culture were captured with a Nikon image collecting system and neurite outgrowth was quantified with Photoshop and NIH image software (25). The total neurite length of DRGs per myelin spot was determined from 5-8 representative experiments. The neurite length of CGNs was measured as previously reported (25, 29). To determine the cellular distribution of PTEN, DRGs were stained with anti-PTEN and anti-Tuj1l antibodies in selected coverslips.

[2] = biological target: T1, PTEN (Homo sapiens, UniProt P60484); experiment: PTEN peptide binding assay in COS-7 cells; settings: biotinylated peptides 15 μM, 1 hour; ABC-DAB, 405 nm; compared to BioRP
T1 construct: host or cells: COS-7
Method: COS-7 cells were cultured as previously reported (29). Forty-eight hrs after transfection, cells were incubated with purified biotinylated RP or PAPs 1-4 (15 μM) for 1 hour. Following 3 washes with PBS and fixation with 4% formaldehyde, COS-7 cells were incubated in ABC and the PAP binding signals were visualized with ABC-DAB based color reactions. The intensity of reaction color in multiple wells was read with a 96-well plate reader at 405 nm. The binding experiments were carried out in 6-12 replicates.

[3] = system: mice with T7 dorsal over-hemisection; experiment: Growth of 5-HT and CST fiber tracts after T7 dorsal over-hemisection SCI; assay type: in vivo; settings: s.c. 71 μg/mouse/day, 5 weeks after SCI; for density of 5-HT fibers in the spinal cord 5-7 mm caudal to the lesion: 14 days from 2 days after SCI, vs RP; for CST sprouts immediately rostral to the lesion (parasagittal sections) / density of ectopic CST sprouts lateral to the dorsal CST, 5-7 mm rostral to the lesion / growth of CST sprouts caudal to the lesion: 14 days
Method: (§3) Adult female C57BL/6 mice (9-10 weeks old) were deeply anesthetized with intramuscular ketamine (100 mg/kg) and intraperitoneal xylazine (15 mg/kg). A complete laminectomy was performed and the dorsal part of the spinal cord was fully exposed at T6 and T7 levels (31). A dorsal over-hemisection (1.0 mm) was performed at T7 with a 30 gauge needle and a pair of microscissors to completely sever dorsal part of the spinal cord as previously reported (29, 31). To study axon growth (FIG. 5-7), mice received daily subcutaneous injections of RP, PAP2 or PAP4 at 71 μg/mouse/day beginning two days after SCI for 14 successive days (29). Mice received BDA tracer injections into the motor cortex 3 weeks after SCI (31).
(§4) Mice were perfused 5 weeks after SCI and the spinal cord blocks around the lesion were processed for 5-HT and CST labeling. In brief, transverse sections (30 μm) 5-7 mm rostral to and caudal to the injury and parasagittal sections 4 mm rostral to and 4 mm caudal to lesion were processed for 5-HT-stained serotonergic fibers and BDA-labeled CST axons. To compare axon number among different groups, 5-HT axons were counted in the spinal cord 0-3.2 mm caudal to the lesion from all parasagittal sections in each animal. To determine functional recovery, locomotion recovery was evaluated during 5 weeks of survival by measuring the BMS two days and per week after SCI, and the grid walk performance and footprint 5 weeks after SCI. For axon quantification and behavioral analysis, 8, 9, and 9 mice were used in the RP, PAP2 and PAP4 groups, respectively.

[4] = system: mice with T7 dorsal over-hemisection; experiment: Locomotor recovery after T7 dorsal over-hemisection SCI (BMS, grid walk, footprint); assay type: in vivo; settings: vs RP; for locomotor recovery, BMS scores: s.c. 71 μg/mouse/day, 14 days, 2-5 weeks after SCI
Method: as §3, §4

[5] = system: CGNs; experiment: Neurite outgrowth of cerebellar granular neurons (CGNs) on CNS myelin; assay type: cell-based, mice; settings: 24 hrs after plating; myelin 50 μg/ml; compared to vehicle
Method: as §1
as §2, with “To determine the cellular distribution of PTEN, DRGs were stained with anti-PTEN and anti-Tuj1l antibodies in selected coverslips.” left out

[6] = system: SCI rats; settings: cited from earlier work

T1 sequence (P60484 whole entry, species assumed): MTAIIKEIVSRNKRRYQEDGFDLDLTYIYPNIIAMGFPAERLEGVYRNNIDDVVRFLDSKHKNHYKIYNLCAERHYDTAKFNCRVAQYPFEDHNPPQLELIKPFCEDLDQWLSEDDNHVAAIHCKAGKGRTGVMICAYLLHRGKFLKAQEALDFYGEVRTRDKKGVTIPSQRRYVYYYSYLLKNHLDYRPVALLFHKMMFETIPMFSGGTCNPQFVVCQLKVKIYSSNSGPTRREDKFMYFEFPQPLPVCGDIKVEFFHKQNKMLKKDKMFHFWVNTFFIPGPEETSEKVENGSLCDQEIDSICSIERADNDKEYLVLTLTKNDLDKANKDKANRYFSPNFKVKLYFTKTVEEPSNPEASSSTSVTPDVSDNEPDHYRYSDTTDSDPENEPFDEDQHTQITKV

| Substance | Optimal dose [1] [µg/mL] | peptide binding to COS-7 cells transfected with PTEN [2] | density of 5-HT fibers in the spinal cord 5-7 mm caudal to the lesion [3] | CST sprouts immediately rostral to the lesion (parasagittal sections) [3] | density of ectopic CST sprouts lateral to the dorsal CST, 5-7 mm rostral to the lesion [3] | growth of CST sprouts caudal to the lesion [3] | locomotor recovery, BMS scores [4] | also measured |
| --- | --- | --- | --- | --- | --- | --- | --- | --- |
| MTAIIKEIVSRNKRR [PAP1] | 2.5 | higher binding affinity than PAP2 |  |  |  |  |  |  |
| KHKNHYKIYNLCAE [PAP2] | 10 |  | significantly increased | higher density | Increased density | A small number of CST sprouts grew into the distal spinal cord | improve locomotor recovery |  |
| PENEPFDEDQHSQITKV [PAP5] | 5 |  |  |  |  |  |  | neurite length of CGNs cultured on CNS myelin [5]: but not with PAP5, significantly increased |
| TVEEPSNPEASSSTSVTPD [PAP4] | 5 | higher binding affinity than PAP2 | significantly increased | very high density | Increased density | terminated rostral to the lesion epicenter | improve locomotor recovery | stride length of the hindpaws ([4]; footprints 5 weeks after injury): enhanced stride length |
| bisperoxovanadium [bpV] |  |  |  |  |  |  |  | functional recovery ([6]; intrathecal): improved functional recovery; functional recovery ([6]; systemic): improved functional recovery; levels of phosphorylated Akt and S6 in the lesioned spinal cord ([6]; systemic): elevated the levels of phosphorylated Akt and S6 |
| IHCKAGKGRTGVMIC [PAP3] | 5 | higher binding affinity than PAP2 |  |  |  |  |  |  |
